According to PubChem BioAssay (NCI):
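These data come from cells grown in 96-well plates and exposed to compound for 48 hours at five concentrations. At the GI50, growth is halved. TGI: concentration producing complete growth inhibition.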

Tests used:
Experiment in all cases: inhibition of tumour cell growth, NCI panel, 48 h
OVCAR-8 ovarian = test system: OVCAR-8 ovarian
DU-145 prostate = test system: DU-145 prostate
SF-295 CNS = test system: SF-295 CNS
MDA-MB-435 = test system: MDA-MB-435
RPMI-8226 leukemia = test system: RPMI-8226 leukemia
PC-3 prostate = test system: PC-3 prostate
UACC-62 melanoma = test system: UACC-62 melanoma
SN12C renal = test system: SN12C renal
HCC-2998 colon = test system: HCC-2998 colon
KM12 colon = test system: KM12 colon
SK-MEL-5 melanoma = test system: SK-MEL-5 melanoma

| SMILES | TGI (OVCAR-8 ovarian) | TGI (DU-145 prostate) | TGI (SF-295 CNS) | TGI (MDA-MB-435) | TGI (RPMI-8226 leukemia) | TGI (PC-3 prostate) | TGI (UACC-62 melanoma) | TGI (SN12C renal) | TGI (HCC-2998 colon) | TGI (KM12 colon) | TGI (SK-MEL-5 melanoma) | GI50 (RPMI-8226 leukemia) |
| --- | --- | --- | --- | --- | --- | --- | --- | --- | --- | --- | --- | --- |
| Cc1nc(Nc2ccccc2Cl)sc1C(=O)CC(=O)C(N)=O | > 100 µM | > 100 µM | > 100 µM | > 100 µM | > 100 µM | > 100 µM | > 100 µM | > 100 µM | > 100 µM | > 100 µM |  |  |
| COc1nc(C#CC2CCCCC2)nc(OC)n1 | 3.44 µM | 14.6 µM | 18 µM | 10.1 µM | 6.53 µM | 16.3 µM | 4.38 µM | 11.1 µM |  | 17.9 µM | 15.3 µM |  |
| COc1cc(N(CCC#N)CCC#N)ccc1/C=N\NC(=O)c1ccc(C)cc1 | > 100 µM | > 100 µM | > 100 µM | > 100 µM |  | 31.1 µM | > 100 µM | > 100 µM |  | > 100 µM | > 100 µM |  |
| C=C1C(C)C2C(Cc3ccccc3)NC(=O)C23OC(=O)/C=C\CC(=O)CCC(C)C/C=C/C3C1O (stereo not drawn) | 16.7 µM |  | 13.9 µM |  | 5.21 µM |  | 11.2 µM | 5.93 µM | 18.5 µM | 12.7 µM | 16.3 µM | 0.932 µM |
| [N-]=[N+]=NCC(O)Cn1cnc2c(NC(=O)c3ccccc3)ncnc21 (stereo not drawn) | > 100 µM |  | > 100 µM |  | > 100 µM |  | > 100 µM | > 100 µM | > 100 µM | > 100 µM | > 100 µM |  |
| CC(=O)C(C)(C)CCC(C)(C)C(C)=O | > 100 µM | > 100 µM | > 100 µM |  |  | > 100 µM | > 100 µM | > 100 µM | > 100 µM | > 100 µM | > 100 µM |  |
| CCCCCCCCC#CCCCCCCCCCC[C@@H]1C(=O)O[C@H](C)[C@@H]1O (tested in a mixture with another compound) | 29.1 µM |  | 65.4 µM |  | 39.9 µM | 46.9 µM |  | 32.3 µM | > 100 µM | 21.9 µM | 26.8 µM |  |
| O=[N+]([O-])/C(C(Cl)=C(Cl)Cl)=C(/Nc1cccc2cccnc12)n1nnc2ccccc21 | 32 µM |  | 42.2 µM | 33 µM | 83.6 µM | 51.3 µM |  | 39.5 µM | > 100 µM | 29.5 µM |  |  |
| NC(=S)NC/C=C/Cl | > 100 µM | > 100 µM | > 100 µM | > 100 µM | > 100 µM | > 100 µM | > 100 µM |  |  | > 100 µM | > 100 µM |  |
| O=c1c2ccccc2nc2ccc3c(Cl)[nH][nH]c3c12 | > 100 µM |  | > 100 µM |  | > 100 µM |  | > 77.7 µM | > 100 µM | > 100 µM | > 100 µM | > 100 µM |  |
| CCOC(=O)C1=C(O)c2ccc(C)cc2C(=O)C1=O | > 100 µM |  | > 100 µM |  | > 100 µM |  | > 100 µM | > 100 µM | > 100 µM | > 100 µM | > 100 µM |  |
| CCN(CC)C(=O)Cn1c2c(c3ccccc31)CCCC2 | > 100 µM |  | > 100 µM | > 100 µM | > 100 µM | > 100 µM | > 100 µM | > 100 µM | > 100 µM |  | > 100 µM |  |
| CC(C)(C)C1=C(Br)C(O)(C(C)(C)C)OP1(=O)c1ccccc1 (stereo not drawn) | > 100 µM | > 100 µM | > 100 µM | > 100 µM |  | > 100 µM | > 100 µM | > 100 µM | > 100 µM | > 100 µM | > 100 µM |  |
| Cn1c(=O)sc2cc(C(=S)N3CCCCC3)ccc21 | > 100 µM | > 100 µM | > 100 µM | > 100 µM | > 100 µM | > 100 µM | > 100 µM | > 100 µM |  | > 100 µM | > 100 µM |  |
| CCCCN(C)/N=N/c1nc[nH]c1C(N)=O | > 100 µM |  | > 100 µM |  | > 100 µM |  | > 100 µM | > 100 µM | > 100 µM | > 100 µM | > 100 µM |  |
| Oc1ccc(-c2nc3ccccc3s2)cc1 | > 100 µM | > 100 µM | > 100 µM | > 100 µM | > 100 µM | > 100 µM | > 100 µM | > 100 µM |  | 38.8 µM |  |  |
| Cc1c2cccc-2ccc2c3ccccc3n(C(=O)c3ccc(Cl)cc3)c12 | > 100 µM | > 100 µM | > 100 µM | > 100 µM | > 100 µM | > 100 µM | > 100 µM | > 100 µM |  | > 100 µM | > 100 µM |  |
| CC(C)c1cc(C(C)C)c(S(=O)(=O)N=[N+]=[N-])c(C(C)C)c1 | > 100 µM |  |  |  | 97.6 µM |  | > 100 µM | > 100 µM | > 100 µM | > 100 µM | > 100 µM |  |
| Clc1ccc(C2=CCN3CC=C(c4ccc(Cl)cc4)C23)cc1 | 29.4 µM | 29.2 µM | 28.9 µM | 22.9 µM | 18.5 µM |  | 21.2 µM | 21 µM | 11.3 µM | 19.2 µM | 13.5 µM |  |
| COc1cc(Oc2nc3cc(F)c(F)cc3nc2-c2ccccc2)cc(OC)c1OC | > 100 µM | > 100 µM | > 100 µM | > 100 µM |  | > 100 µM | > 100 µM | > 100 µM |  | > 100 µM | 75.3 µM |  |
| COc1cc2nc(-c3cccs3)nc(Nc3cccc(Cl)c3)c2cc1OC | > 100 µM | > 100 µM | 69.2 µM | > 100 µM | > 100 µM | 56.8 µM | > 100 µM | > 100 µM |  | > 100 µM | > 100 µM |  |
| O=C(OCc1ccccc1)N1CCNCCNCCN(C(=O)OCc2ccccc2)CCNCC1 | 32.8 µM | > 100 µM | 33.7 µM | 29.6 µM | 50.8 µM | > 100 µM | 31.7 µM | > 100 µM |  | 70 µM | 27.1 µM |  |
